Reference: patent US8598365B2, “Herbicides” (Syngenta Limited, priority 2007, dated 2013)

Columns and labels:
Type in all cases: in vivo
[1] = test system: Echinochloa crus-galli (ECHCG); assay: Example A post-emergence herbicidal activity; conditions: rate 125 g/ha, evaluated 14 or 15 days later
Description: (§1) Seeds of a variety of test species were sown in standard soil in pots. After cultivation for one day (pre-emergence) or after 10 days cultivation (post-emergence) under controlled conditions in a glasshouse, the plants were sprayed with an aqueous spray solution derived from the formulation of the technical active ingredient in 0.6 ml acetone and 45 ml formulation solution containing 10.6% Emulsogen EL (Registry number 61791-12-6), 42.2% N-methylpyrrolidone, 42.2% dipropylene glycol monomethyl ether (Registry number 34590-94-8) and 0.2% X-77 (Registry number 11097-66-8). The test plants were then grown in a greenhouse under optimum conditions until, 14 or 15 days later for post-emergence and 19 or 20 days for pre-emergence, the test was evaluated (100=total damage to plant; 0=no damage to plant). Alopecurus myosuroides (ALOMY), Avena fatua (AVEFA), Lolium perenne (LOLPE), Setaria faberi (SETFA), Digitaria sanguinalis (DIGSA), Echinochloa crus-galli (ECHCG)

Lolium perenne (LOLPE) [2] = assay: Example A post-emergence herbicidal activity; conditions: rate 125 g/ha, evaluated 14 or 15 days later
Description: as §1

[3] = test system: Alopecurus myosuroides (ALOMY); assay: Example A post-emergence herbicidal activity; conditions: rate 125 g/ha, evaluated 14 or 15 days later
Description: as §1

Setaria faberi (SETFA) [4] = assay: Example A post-emergence herbicidal activity; conditions: rate 125 g/ha, evaluated 14 or 15 days later
Description: as §1

Avena fatua (AVEFA) [5] = assay: Example A post-emergence herbicidal activity; conditions: rate 125 g/ha, evaluated 14 or 15 days later
Description: as §1

[6] = test system: Digitaria sanguinalis (DIGSA); assay: Example A post-emergence herbicidal activity; conditions: rate 125 g/ha, evaluated 14 or 15 days later
Description: as §1

[7] = test system: Echinochloa crus-galli (ECHCG); assay: Example A pre-emergence herbicidal activity; conditions: rate 250 g/ha, evaluated 19 or 20 days later
Description: as §1

Lolium perenne (LOLPE) [8] = assay: Example A pre-emergence herbicidal activity; conditions: rate 250 g/ha, evaluated 19 or 20 days later
Description: as §1

[9] = test system: Alopecurus myosuroides (ALOMY); assay: Example A pre-emergence herbicidal activity; conditions: rate 250 g/ha, evaluated 19 or 20 days later
Description: as §1

Setaria faberi (SETFA) [10] = assay: Example A pre-emergence herbicidal activity; conditions: rate 250 g/ha, evaluated 19 or 20 days later
Description: as §1

Avena fatua (AVEFA) [11] = assay: Example A pre-emergence herbicidal activity; conditions: rate 250 g/ha, evaluated 19 or 20 days later
Description: as §1

[12] = test system: Digitaria sanguinalis (DIGSA); assay: Example A pre-emergence herbicidal activity; conditions: rate 250 g/ha, evaluated 19 or 20 days later
Description: as §1

[13] = test system: Echinochloa crus-galli (ECHCG); assay: Example B pre-emergence herbicidal activity; conditions: 312 h, rate 250 g/ha, evaluated after 13 days, read-out: Pre-Emergence Activity ECHCG (100=total damage to plant; 0=no damage to plant)
Outline: (§2)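 Seeds sown in standard soil in pots and grown in a glasshouse at 24/16 °C day/night, 14 h light, 65% humidity. Sprayed 1 day after sowing (pre-emergence) or after 8 days (post-emergence) with aqueous spray of active in acetone/water 50:50 with 0.5% Tween 20. Damage scored after 13 days, 0–100 scale.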

[14] = test system: Alopecurus myosuroides (ALOMY); assay: Example B pre-emergence herbicidal activity; conditions: 312 h, rate 250 g/ha, evaluated after 13 days, read-out: Pre-Emergence Activity ALOMY (100=total damage to plant; 0=no damage to plant)
Outline: as §2

[15] = test system: Amaranthus retoflexus (AMARE); assay: Example B pre-emergence herbicidal activity; conditions: Amaranthus retroflexus, 312 h, rate 250 g/ha, evaluated after 13 days, read-out: Pre-Emergence Activity AMARE (100=total damage to plant; 0=no damage to plant)
Outline: as §2

Setaria faberi (SETFA) [16] = assay: Example B pre-emergence herbicidal activity; conditions: 312 h, rate 250 g/ha, evaluated after 13 days, read-out: Pre-Emergence Activity SETFA (100=total damage to plant; 0=no damage to plant)
Outline: as §2

Avena fatua (AVEFA) [17] = assay: Example B pre-emergence herbicidal activity; conditions: 312 h, rate 250 g/ha, evaluated after 13 days, read-out: Pre-Emergence Activity AVEFA (100=total damage to plant; 0=no damage to plant)
Outline: as §2

[18] = test system: Echinochloa crus-galli (ECHCG); assay: Example B post-emergence herbicidal activity; conditions: 312 h, rate 250 g/ha, evaluated after 13 days, read-out: Post-emergence activity ECHCG (100=total damage to plant; 0=no damage to plant)
Outline: as §2

[19] = test system: Alopecurus myosuroides (ALOMY); assay: Example B post-emergence herbicidal activity; conditions: 312 h, rate 250 g/ha, evaluated after 13 days, read-out: Post-emergence activity ALOMY (100=total damage to plant; 0=no damage to plant)
Outline: as §2

[20] = test system: Amaranthus retoflexus (AMARE); assay: Example B post-emergence herbicidal activity; conditions: Amaranthus retroflexus, 312 h, rate 250 g/ha, evaluated after 13 days, read-out: Post-emergence activity AMARE (100=total damage to plant; 0=no damage to plant)
Outline: as §2

Setaria faberi (SETFA) [21] = assay: Example B post-emergence herbicidal activity; conditions: 312 h, rate 250 g/ha, evaluated after 13 days, read-out: Post-emergence activity SETFA (100=total damage to plant; 0=no damage to plant)
Outline: as §2

Avena fatua (AVEFA) [22] = assay: Example B post-emergence herbicidal activity; conditions: 312 h, rate 250 g/ha, evaluated after 13 days, read-out: Post-emergence activity AVEFA (100=total damage to plant; 0=no damage to plant)
Outline: as §2

| SMILES | Post-Emergence Activity ECHCG (100=total damage to plant; 0=no damage to plant) [1] | Post-Emergence Activity LOLPE (100=total damage to plant; 0=no damage to plant) (Lolium perenne (LOLPE) [2]) | Post-Emergence Activity ALOMY (100=total damage to plant; 0=no damage to plant) [3] | Post-Emergence Activity SETFA (100=total damage to plant; 0=no damage to plant) (Setaria faberi (SETFA) [4]) | Post-Emergence Activity AVEFA (100=total damage to plant; 0=no damage to plant) (Avena fatua (AVEFA) [5]) | Post-Emergence Activity DIGSA (100=total damage to plant; 0=no damage to plant) [6] | Pre-Emergence Activity ECHCG (100=total damage to plant; 0=no damage to plant) [7] | Pre-Emergence Activity LOLPE (100=total damage to plant; 0=no damage to plant) (Lolium perenne (LOLPE) [8]) | Pre-Emergence Activity ALOMY (100=total damage to plant; 0=no damage to plant) [9] | Pre-Emergence Activity SETFA (100=total damage to plant; 0=no damage to plant) (Setaria faberi (SETFA) [10]) | pest or weed control at 250 g/ha [13] [%] | pest or weed control at 250 g/ha [14] [%] | pest or weed control at 250 g/ha [15] [%] | pest or weed control at 250 g/ha (Setaria faberi (SETFA) [16]) [%] | pest or weed control at 250 g/ha (Avena fatua (AVEFA) [17]) [%] | pest or weed control at 250 g/ha [18] [%] | pest or weed control at 250 g/ha [19] [%] | pest or weed control at 250 g/ha [20] [%] | pest or weed control at 250 g/ha (Setaria faberi (SETFA) [21]) [%] | pest or weed control at 250 g/ha (Avena fatua (AVEFA) [22]) [%] | also measured |
| --- | --- | --- | --- | --- | --- | --- | --- | --- | --- | --- | --- | --- | --- | --- | --- | --- | --- | --- | --- | --- | --- |
| Cc1sc(-c2ccc(Cl)cc2)cc1C1C(=O)[C@@H]2CC[C@@H](C2)C1=O (some centres unmarked) [Compound T23] | 90 | 70 | 80 | 100 | 70 | 90 | 0 | 0 | 30 | 0 | – | – | – | – | – | – | – | – | – | – | Pre-Emergence Activity AVEFA (100=total damage to plant; 0=no damage to plant) (Avena fatua (AVEFA) [11]): 50; Pre-Emergence Activity DIGSA (100=total damage to plant; 0=no damage to plant) [12]: 0 |
| Cc1[se]c(-c2ccc(Cl)cc2)nc1C1C(=O)[C@@H]2CC[C@@H](C2)C1=O (some centres unmarked) [Compound T1, 3-[2-(4-chlorophenyl)-5-methylselenazol-4-yl]bicyclo[3.2.1]octane-2,4-dione] | 100 | 30 | 70 | 90 | 70 | 80 | 60 | 80 | 60 | 70 | – | – | – | – | – | – | – | – | – | – | Pre-Emergence Activity AVEFA (100=total damage to plant; 0=no damage to plant) (Avena fatua (AVEFA) [11]): 20; Pre-Emergence Activity DIGSA (100=total damage to plant; 0=no damage to plant) [12]: 60 |
| Cc1sc(-c2ccc(Cl)nc2)nc1C1C(=O)[C@@H]2CC[C@@H](C2)C1=O (some centres unmarked) [Compound T16] | 50 | 20 | 20 | 60 | 40 | 70 | 70 | 20 | 10 | 80 | – | – | – | – | – | – | – | – | – | – | Pre-Emergence Activity AVEFA (100=total damage to plant; 0=no damage to plant) (Avena fatua (AVEFA) [11]): 20; Pre-Emergence Activity DIGSA (100=total damage to plant; 0=no damage to plant) [12]: 80 |
| Cc1sc(-c2ccc(Br)cc2)nc1C1C(=O)[C@@H]2CC[C@@H](C2)C1=O (some centres unmarked) [Compound T15] | 70 | 50 | 90 | 100 | 90 | 100 | 100 | 100 | 90 | 100 | – | – | – | – | – | – | – | – | – | – | Pre-Emergence Activity DIGSA (100=total damage to plant; 0=no damage to plant) [12]: 100 |
| CCc1sc(-c2c(F)cc(Cl)cc2F)nc1C1C(=O)[C@@H]2CC[C@@H](C2)C1=O (some centres unmarked) [Compound T29] | – | – | – | – | – | – | – | – | – | – | 100 | 90 | 20 | 100 | 90 | 100 | 100 | 0 | 100 | 100 | – |
| CCc1sc(-c2ccc(Cl)s2)nc1C1C(=O)[C@@H]2CC[C@@H](C2)C1=O (some centres unmarked) [Compound T36] | – | – | – | – | – | – | – | – | – | – | 60 | 60 | 0 | 70 | 20 | 100 | 90 | 0 | 100 | 20 | – |
| COc1ccc(-c2nc(C3C(=O)[C@@H]4CC[C@@H](C4)C3=O)c(C)s2)cc1F (some centres unmarked) [Compound T76] | – | – | – | – | – | – | – | – | – | – | 50 | 0 | 0 | 70 | 0 | 90 | 70 | 0 | 80 | 50 | – |
| CCc1sc(-c2ccc(F)cc2F)nc1C1C(=O)[C@@H]2CC[C@@H](C2)C1=O (some centres unmarked) [Compound T104] | – | – | – | – | – | – | – | – | – | – | 100 | 70 | 0 | 50 | 20 | 100 | 100 | 0 | 100 | 90 | – |
| O=C1C(c2nc(-c3ccc(Cl)cc3)sc2Cl)C(=O)[C@H]2CC[C@@H]1C2 (some centres unmarked) [Compound T55] | – | – | – | – | – | – | – | – | – | – | 100 | 100 | 0 | 100 | 100 | 100 | 100 | 0 | 100 | 100 | – |
| Cc1sc(-c2ccc(C#N)cc2)nc1C1C(=O)[C@@H]2CC[C@@H](C2)C1=O (some centres unmarked) [Compound T65] | – | – | – | – | – | – | – | – | – | – | 100 | 50 | 20 | 100 | 20 | 100 | 50 | 70 | 100 | 70 | – |
